# Results taken from patent US20240025849A1 (MAX DELBRÜCK-CENTRUM FÜR MOLEKULARE MEDIZIN IN DER …, priority 2020, published 2024).
# Read-outs that look alike come from different tables or passages of the source.
# Test system: primary cultured neonatal microglia
# Assay: LPS induced NO release, Griess assay, laboratory scaled setup;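 as to active: compounds at or above the IC50 cutoff were called inactive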
# Assay type: cell-based, mouse
# Details: for IC50: Mus musculus, Microglia
# Procedure: Primary cultured neonatal microglia. For preparation of cultured neonatal microglia, P0-P3 mice were used. 10 brains were extracted, meninges and cerebellum were removed and put on ice with Hank's balanced salt solution (HBSS). The dissected brains were washed 3 times before adding 400 μL trypsin (0.1 mg/L) and DNAse (5 μg/L) in phosphate buffered saline (PBS). After 2 min of incubation with this solution, the reaction was blocked by adding plain medium. After removal of the medium, 1 mg DNAse was added and the cells were mechanically dissociated, with a Pasteur pipette followed by a glass pipette. The cells were centrifuged for 10 min at 129 g at 4° C. The supernatant was discarded. The pellet was resuspended in plain medium and plated (2.5 brains/flask) in Poly-L-Lysine coated flasks. The cells were washed after 2 days with PBS and incubated for another 7 days in plain medium. Afterwards the medium was replaced by plain medium with 33% L929 conditioned medium. After 2 days, cells were harvested by shaking them for 30 min at 150 rpm. The supernatant was centrifuged for 10 min at 129 g at 4° C. The cells were plated into a 96 well plate (100 000 cells/well, 200 μL medium per well). This procedure could be repeated 2 times with a 2 day interval.
# Griess assay. Cells were seeded according to the protocols described above, after compounds and stimuli were added, 100 μl of supernatant was transferred into a new 96 well plate and 100 μl freshly mixed Griess reagent were added. Griess reagent was composed of reagent A (100 mg Naphthylethylene in 50 ml aqua dest.) and reagent B (1 g Sulfanilamide, […] H3PO4 (85%) in 44 mL aqua dest.) mixed 1:1. The solution was carefully mixed and the absorbance was determined in a microplate reader at a wavelength of 550 nm.
# Dissolved sodium nitrite in plain medium served as a standard. Total amount of nitrite was calculated by a linear regression of the standard curve.
# The activity of the compounds listed in column 1 of Table 1 as inhibitors of NO production was compared in murine primary cultured neonatal microglia as described above.
# [1] = inhibitors of NO production, murine primary cultured neonatal microglia, read-out: IC50
# [2] = inhibitors of NO production, murine primary cultured neonatal microglia, read-out: activity class (IC50)
# [3] = inhibitors of NO production, murine primary cultured neonatal microglia
# [4] = inhibitors of NO production, murine primary cultured neonatal microglia, read-out: active
# [5] = 0.002 to 20 μM, FIG. 9, read-out: IC50, LPS induced NO production (stereoisomers)
Compound,IC50 [1] [µM],IC50 [2] [µM],active [3],IC50 [4] [µM],inhibitory effect in the NO release assay (FIG. 9),IC50 [5] [µM]
"COc1ccc([C@H](NC(=O)[C@@H]2CCCN2C(=O)OCc2ccccc2)C(=O)Nc2ccc3c(c2)CCO3)cc1 [Compound 22, benzyl-(S)-2-(((S)-2-((2,3-dihydrobenzofuran-5-yl)amino)-1-(4-methoxyphenyl)-2-oxoethyl)carbamoyl)pyrrolidine-1-carboxylate]",0.231,< 1,YES,,,
"COc1ccc(NC(=O)[C@@H](NC(=O)[C@@H]2CCCN2C(=O)c2ccccc2)c2ccc(OC)cc2)cc1 [Compound 24, (S)-1-benzoyl-N—((S)-1-(4-methoxyphenyl)-2-((4-methoxyphenyl)amino)-2-oxoethyl)pyrrolidine-2-carboxamide]",1.1,< 10,YES,,,
COc1ccc(NC(=O)[C@@H](NC(=O)[C@@H]2CCCN2C(=O)CCCCCNC(=O)CCCC[C@@H]2SC[C@@H]3NC(=O)N[C@@H]32)c2ccc(OC)cc2)cc1 [Compound 45],,,,≥ 10,,
"COc1ccc(NC(=O)[C@@H](NC(=O)[C@@H]2CCCN2C(=O)C2CCCCC2)c2ccc(OC)cc2)cc1 [Compound 23, (S)-1-(cyclohexanecarbonyl)-N—((S)-1-(4-methoxyphenyl)-2-((4-methoxyphenyl)amino)-2-oxoethyl)pyrrolidine-2-carboxamide]",1.08,< 10,YES,,,
COc1ccc(NC(=O)[C@@H](NC(=O)[C@@H]2CCCN2)c2ccc(OC)cc2)cc1 [Compound 44],,,,≥ 10,,
"COc1ccc(NC(=O)[C@@H](NC(=O)[C@@H]2CCCN2C(=O)CCc2ccccn2)c2ccc(OC)cc2)cc1 [Compound 25, (S)—N—((S)-1-(4-methoxyphenyl)-2-((4-methoxyphenyl)amino)-2-oxoethyl)-1-(3-(pyridin-2-yl)propanoyl)pyrrolidine-2-carboxamide]",6.88,< 10,YES,,,
"COc1ccc(NC(=O)[C@@H](NC(=O)[C@@H]2CCCCN2C(=O)OCc2ccccc2)c2ccc(OC)cc2)cc1 [Compound 34, benzyl (S)-2-(((S)-1-(4-methoxyphenyl)-2-((4-methoxyphenyl)amino)-2-oxoethyl)carbamoyl)piperidine-1-carboxylate]",,< 0.2,YES,,,
COc1ccc([C@H](NC(=O)[C@@H]2CCCN2C(=O)OCc2ccccc2)C(=O)Nc2cccnc2)cc1 [Compound 49],,,,≥ 10,,
"COc1ccc([C@H](NC(=O)[C@@H]2CCCN2C(=O)OCc2ccccc2)C(=O)Nc2cnc(C)s2)cc1 [Compound 26, benzyl (S)-2-(((S)-1-(4-methoxyphenyl)-2-((2-methylthiazol-5-yl)amino)-2-oxoethyl)carbamoyl)pyrrolidine-1-carboxylate]",2.5,< 10,YES,,,
"COc1ccc(NC(=O)[C@@H](NC(=O)[C@@H]2C[C@@H](O)CN2C(=O)CCC2CCCCC2)c2ccc(OC)cc2)cc1 [Compound 53, (2S,4R)-1-(3-cyclohexylpropanoyl)-4-hydroxy-N—((S)-1-(4-methoxyphenyl)-2-((4-methoxyphenyl)amino)-2-oxoethyl)pyrrolidine-2-carboxamide]",,< 1,YES,,,
"COc1ccc(NC(=O)[C@@H](NC(=O)[C@@H]2CCCN2C(=O)CCC2CCOCC2)c2ccc(OC)cc2)cc1 [Compound 15, (S)—N—((S)-1-(4-methoxyphenyl)-2-((4-methoxyphenyl)amino)-2-oxoethyl)-1-(3-(tetrahydro-2H-pyran-4-yl)propanoyl)pyrrolidine-2-carboxamide]",0.117,< 0.2,YES,,,
"COc1ccc(NC(=O)[C@@H](NC(=O)[C@@H]2CCCN2C(=O)CCc2ccc(F)cc2)c2ccc(OC)cc2)cc1 [Compound 9, (S)-1-(3-(4-fluorophenyl)propanoyl)-N—((S)-1-(4-methoxyphenyl)-2-((4-methoxyphenyl)amino)-2-oxoethyl)pyrrolidine-2-carboxamide]",0.0548,< 0.1,YES,,,
"COc1ccc(NC(=O)[C@H](NC(=O)[C@@H]2CCCN2C(=O)OCc2ccccc2)c2ccc(OC)cc2)cc1 [Compound 50, benzyl-(S)-2-(((R)-1-(4-methoxyphenyl)-2-((4-methoxyphenyl)amino)-2-oxoethyl)carbamoyl)-pyrrolidine-1-carboxylate]",,,,≥ 10,not,40
"COc1ccc(NC(=O)[C@@H](NC(=O)[C@@H]2CCN2C(=O)OCc2ccccc2)c2ccc(OC)cc2)cc1 [Compound 30, benzyl (S)-2-(((S)-1-(4-methoxyphenyl)-2-((4-methoxyphenyl)amino)-2-oxoethyl)carbamoyl)azetidine-1-carboxylate]",,< 1,YES,,,
"COc1ccc(NC(=O)[C@@H](NC(=O)[C@@H]2C[C@@H]3CCCC[C@@H]3N2C(=O)OCc2ccccc2)c2ccc(OC)cc2)cc1 [Compound 31, benzyl(2S,3aS,7aS)-2-(((S)-1-(4-methoxyphenyl)-2-((4-methoxyphenyl)amino)-2-oxoethyl)carbamoyl)octahydro-1H-indole-1-carboxylate]",,< 10,YES,,,
"COc1ccc(NC(=O)[C@@H](NC(=O)[C@@H]2CCCN2C(=O)OC(C)(C)C)c2ccc(OC)cc2)cc1 [Compound 28, tert-butyl (S)-2-(((S)-1-(4-methoxyphenyl)-2-((4-methoxyphenyl)amino)-2-oxoethyl)carbamoyl)pyrrolidine-1-carboxylate]",3.3,< 10,YES,,,
"COc1ccc([C@H](NC(=O)[C@@H]2CCCN2C(=O)OCc2ccccc2)C(=O)Nc2cc3n(n2)CCCC3)cc1 [Compound 10, benzyl(S)-2-(((S)-1-(4-methoxyphenyl)-2-oxo-2-((4,5,6,7-tetrahydropyrazolo[1,5-a]pyridin-2-yl)amino)ethyl)carbamoyl)pyrrolidine-1-carboxylate]",0.0655,< 0.1,YES,,,
"COc1ccc([C@H](NC(=O)[C@@H]2CCCN2C(=O)OCc2ccccc2)C(=O)Nc2ccc3c(c2)n(C)c(=O)n3C)cc1 [Compound 42, benzyl (S)-2-(((S)-2-((1,3-dimethyl-2-oxo-2,3-dihydro-1H-benzo[d]imidazol-5-yl)amino)-1-(4-methoxyphenyl)-2-oxoethyl)carbamoyl)pyrrolidine-1-carboxylate]",,,,≥ 10,,
"COc1ccc([C@H](NC(=O)[C@@H]2CCCN2C(=O)OCc2ccccc2)C(=O)Nc2cnc(C3CC3)nc2)cc1 [Compound 27, benzyl(S)-2-(((S)-2-((2-cyclopropylpyrimidin-5-yl)amino)-1-(4-methoxyphenyl)-2-oxoethyl)carbamoyl)pyrrolidine-1-carboxylate]",1.91,< 10,YES,,,
"COc1ccc(NC(=O)[C@@H](NC(=O)[C@@H]2CCCN2C(=O)OCc2ccccc2)c2ccc(OC)cc2)cc1 [Compound 18, (S)-benzyl-2-((S)—(4-methoxyphenylcarbamoyl)(4-methoxyphenyl)methylcarbamoyl)pyrrolidine-1-carboxylate]",0.107,< 0.2,YES,,shows an inhibitory effect,0.1
"COc1ccc(NC(=O)[C@@H](NC(=O)[C@@H]2CCCN2C(=O)CCc2ccoc2)c2ccc(OC)cc2)cc1 [Compound 14, (S)-1-(3-(furan-3-yl)propanoyl)-N—((S)-1-(4-methoxyphenyl)-2-((4-methoxyphenyl)amino)-2-oxoethyl)pyrrolidine-2-carboxamide]",0.147,< 0.2,YES,,,
"COc1ccc(NC(=O)[C@@H](NC(=O)[C@@H]2CCCN2C(=O)CCC2CCCC2)c2ccc(OC)cc2)cc1 [Compound 5, (S)-1-(3-cyclopentylpropanoyl)-N—((S)-1-(4-methoxyphenyl)-2-((4-methoxyphenyl)amino)-2-oxoethyl)pyrrolidine-2-carboxamide]",0.0167,< 0.05,YES,,,
"COc1ccc(NC(=O)[C@@H](NC(=O)[C@@H]2CCCN2C(=O)CCc2cccs2)c2ccc(OC)cc2)cc1 [Compound 16, (S)—N—((S)-1-(4-methoxyphenyl)-2-((4-methoxyphenyl)amino)-2-oxoethyl)-1-(3-(thiophen-2-yl)propanoyl)pyrrolidine-2-carboxamide]",0.122,< 0.2,YES,,,
